Experimental data taken from the NIST ThermoML archive (doi:10.1021/je0502546).

How the values were obtained:
[1] = xn = mol fraction of the nth substance listed; conditions: 101 kPa, Liquid; for viscosity: Capillary tube (Ostwald / Ubbelohde) method
[2] = refractive index (Na D-line) (dimensionless); xn = mol fraction of the nth substance listed; conditions: 101 kPa, Liquid, Standard Abbe refractometry
[3] = refractive index (Na D-line) (dimensionless); conditions: 101.33 kPa, Liquid, Standard Abbe refractometry
[4] = 101 kPa, Liquid; for viscosity: Capillary tube (Ostwald / Ubbelohde) method

COc1ccccc1 [anisole] + CCCc1ccccc1
x1 = 1
Conditions | mass density, [1] [kg/m3] | refractive index, [2] | viscosity, [1] [mPa·s]
293.15 K | 993.8 | 1.5177 | 1.084
303.15 K | 984.37 | 1.5124 | 0.931

c1ccccc1 [benzene] + COc1ccccc1
x2 = 0
Conditions | mass density, [1] [kg/m3] | refractive index, [2] | viscosity, [1] [mPa·s]
293.15 K | 877.43 | 1.5011 | 0.647
303.15 K | 868.26 | 1.4947 | 0.563

Cc1ccccc1 [toluene]
Conditions | mass density, [4] [kg/m3] | refractive index, [3] | viscosity, [4] [mPa·s]
293.15 K | 866.88 | 1.4962 | 0.588
303.15 K | 857.46 | 1.4914 | 0.523

c1ccccc1 [benzene]
Conditions | mass density, [4] [kg/m3] | refractive index, [3] | viscosity, [4] [mPa·s]
293.15 K | 877.43 | 1.5011 | 0.647
303.15 K | 868.26 | 1.4947 | 0.563

CCCCc1ccccc1 [butylbenzene] + COc1ccccc1
Conditions | mass density, [1] [kg/m3] | refractive index, [2] | viscosity, [1] [mPa·s]
293.15 K, x2 = 0 | 861.26 | 1.4895 | 1.034
293.15 K, x2 = 0.1238 | 873.01 | 1.4923 | 1.005
293.15 K, x2 = 0.225 | 884.01 | 1.4948 | 0.985
293.15 K, x2 = 0.3541 | 898.83 | 1.498 | 0.971
293.15 K, x2 = 0.48 | 914.4 | 1.5014 | 0.965
293.15 K, x2 = 0.581 | 927.77 | 1.5042 | 0.97
293.15 K, x2 = 0.67 | 940.23 | 1.5068 | 0.983
293.15 K, x2 = 0.7672 | 954.65 | 1.5097 | 1.002
293.15 K, x2 = 0.8483 | 967.5 | 1.5123 | 1.027
293.15 K, x2 = 0.9201 | 979.53 | 1.5148 | 1.052
303.15 K, x2 = 0 | 852.23 | 1.4845 | 0.893
303.15 K, x2 = 0.1238 | 865.04 | 1.4872 | 0.872
303.15 K, x2 = 0.225 | 875.92 | 1.4896 | 0.855
303.15 K, x2 = 0.3541 | 890.71 | 1.4927 | 0.841
303.15 K, x2 = 0.48 | 906.13 | 1.4961 | 0.837
303.15 K, x2 = 0.581 | 919.36 | 1.4989 | 0.842
303.15 K, x2 = 0.67 | 931.73 | 1.5014 | 0.851
303.15 K, x2 = 0.7672 | 946.15 | 1.5043 | 0.867
303.15 K, x2 = 0.8483 | 958.84 | 1.5068 | 0.885
303.15 K, x2 = 0.9201 | 970.6 | 1.5093 | 0.905

COc1ccccc1 [anisole] + Cc1ccccc1
Conditions | mass density, [1] [kg/m3] | refractive index, [2] | viscosity, [1] [mPa·s]
293.15 K, x1 = 0.0966 | 879.58 | 1.4993 | 0.62
293.15 K, x1 = 0.1954 | 892.47 | 1.5016 | 0.656
293.15 K, x1 = 0.2911 | 904.89 | 1.5037 | 0.693
293.15 K, x1 = 0.3936 | 918.06 | 1.506 | 0.736
293.15 K, x1 = 0.5043 | 932.17 | 1.5083 | 0.787
293.15 K, x1 = 0.5985 | 944.06 | 1.5102 | 0.834
293.15 K, x1 = 0.6995 | 956.7 | 1.5122 | 0.89
293.15 K, x1 = 0.7956 | 968.63 | 1.514 | 0.947
293.15 K, x1 = 0.8986 | 981.29 | 1.5159 | 1.013
293.15 K, x1 = 1 | 993.8 | 1.5177 | 1.084
303.15 K, x1 = 0.0966 | 870.21 | 1.4936 | 0.549
303.15 K, x1 = 0.1954 | 883.13 | 1.4959 | 0.579
303.15 K, x1 = 0.2911 | 895.55 | 1.4981 | 0.61
303.15 K, x1 = 0.3936 | 908.76 | 1.5003 | 0.645
303.15 K, x1 = 0.5043 | 922.89 | 1.5027 | 0.687
303.15 K, x1 = 0.5985 | 934.8 | 1.5046 | 0.726
303.15 K, x1 = 0.6995 | 947.44 | 1.5067 | 0.772
303.15 K, x1 = 0.7956 | 959.38 | 1.5085 | 0.818
303.15 K, x1 = 0.8986 | 972.06 | 1.5105 | 0.872
303.15 K, x1 = 1 | 984.37 | 1.5124 | 0.931

COc1ccccc1 [anisole] + c1ccccc1
Conditions | mass density, [1] [kg/m3] | refractive index, [2] | viscosity, [1] [mPa·s]
293.15 K, x1 = 0.0938 | 889.8 | 1.5032 | 0.677
293.15 K, x1 = 0.1955 | 903.56 | 1.5053 | 0.711
293.15 K, x1 = 0.3053 | 917.74 | 1.5074 | 0.751
293.15 K, x1 = 0.3994 | 929.35 | 1.5091 | 0.788
293.15 K, x1 = 0.5 | 941.27 | 1.5108 | 0.829
293.15 K, x1 = 0.6005 | 952.68 | 1.5124 | 0.874
293.15 K, x1 = 0.6996 | 963.47 | 1.5139 | 0.921
293.15 K, x1 = 0.8013 | 974.11 | 1.5153 | 0.972
293.15 K, x1 = 0.8978 | 983.8 | 1.5166 | 1.025
293.15 K, x1 = 1 | 993.8 | 1.5177 | 1.084
303.15 K, x1 = 0.0938 | 881.47 | 1.4967 | 0.587
303.15 K, x1 = 0.1955 | 895.16 | 1.4989 | 0.616
303.15 K, x1 = 0.3053 | 909.24 | 1.5011 | 0.649
303.15 K, x1 = 0.3994 | 920.76 | 1.5028 | 0.679
303.15 K, x1 = 0.5 | 932.57 | 1.5046 | 0.714
303.15 K, x1 = 0.6005 | 943.88 | 1.5064 | 0.751
303.15 K, x1 = 0.6996 | 954.56 | 1.508 | 0.791
303.15 K, x1 = 0.8013 | 965.08 | 1.5096 | 0.836
303.15 K, x1 = 0.8978 | 974.66 | 1.511 | 0.88
303.15 K, x1 = 1 | 984.37 | 1.5124 | 0.931

COc1ccccc1 [anisole] + CCCCc1ccccc1
x1 = 1
Conditions | mass density, [1] [kg/m3] | refractive index, [2] | viscosity, [1] [mPa·s]
293.15 K | 993.8 | 1.5177 | 1.084
303.15 K | 984.37 | 1.5124 | 0.931

COc1ccccc1 [anisole] + CCc1ccccc1
Conditions | mass density, [1] [kg/m3] | refractive index, [2] | viscosity, [1] [mPa·s]
293.15 K, x1 = 0.1061 | 879.21 | 1.4977 | 0.691
293.15 K, x1 = 0.2202 | 892.9 | 1.5 | 0.721
293.15 K, x1 = 0.3206 | 905.19 | 1.502 | 0.752
293.15 K, x1 = 0.4278 | 918.51 | 1.5041 | 0.789
293.15 K, x1 = 0.5402 | 932.69 | 1.5065 | 0.834
293.15 K, x1 = 0.6322 | 944.49 | 1.5086 | 0.876
293.15 K, x1 = 0.7282 | 956.99 | 1.5108 | 0.923
293.15 K, x1 = 0.8198 | 969.11 | 1.513 | 0.973
293.15 K, x1 = 0.8994 | 979.84 | 1.5153 | 1.02
293.15 K, x1 = 1 | 993.8 | 1.5177 | 1.084
303.15 K, x1 = 0.1061 | 870.49 | 1.4922 | 0.616
303.15 K, x1 = 0.2202 | 884.19 | 1.4944 | 0.639
303.15 K, x1 = 0.3206 | 896.45 | 1.4964 | 0.662
303.15 K, x1 = 0.4278 | 909.71 | 1.4986 | 0.689
303.15 K, x1 = 0.5402 | 923.84 | 1.501 | 0.725
303.15 K, x1 = 0.6322 | 935.58 | 1.5031 | 0.759
303.15 K, x1 = 0.7282 | 948.02 | 1.5053 | 0.798
303.15 K, x1 = 0.8198 | 960.07 | 1.5075 | 0.841
303.15 K, x1 = 0.8994 | 970.71 | 1.5099 | 0.878
303.15 K, x1 = 1 | 984.37 | 1.5124 | 0.931

CCCc1ccccc1 [propylbenzene] + COc1ccccc1
Conditions | mass density, [1] [kg/m3] | refractive index, [2] | viscosity, [1] [mPa·s]
293.15 K, x2 = 0 | 863.13 | 1.4916 | 0.855
293.15 K, x2 = 0.1216 | 876.73 | 1.4944 | 0.857
293.15 K, x2 = 0.2422 | 890.73 | 1.4972 | 0.862
293.15 K, x2 = 0.3455 | 903.18 | 1.4996 | 0.874
293.15 K, x2 = 0.4531 | 916.62 | 1.5023 | 0.892
293.15 K, x2 = 0.5658 | 931.23 | 1.5051 | 0.915
293.15 K, x2 = 0.6574 | 943.52 | 1.5076 | 0.94
293.15 K, x2 = 0.7486 | 956.19 | 1.5101 | 0.971
293.15 K, x2 = 0.8349 | 968.57 | 1.5126 | 1.005
293.15 K, x2 = 0.916 | 980.65 | 1.515 | 1.042
303.15 K, x2 = 0 | 854.71 | 1.4858 | 0.744
303.15 K, x2 = 0.1216 | 868.36 | 1.4886 | 0.748
303.15 K, x2 = 0.2422 | 882.36 | 1.4914 | 0.752
303.15 K, x2 = 0.3455 | 894.78 | 1.4939 | 0.758
303.15 K, x2 = 0.4531 | 908.15 | 1.4966 | 0.77
303.15 K, x2 = 0.5658 | 922.67 | 1.4995 | 0.79
303.15 K, x2 = 0.6574 | 934.9 | 1.5019 | 0.812
303.15 K, x2 = 0.7486 | 947.46 | 1.5045 | 0.84
303.15 K, x2 = 0.8349 | 959.71 | 1.507 | 0.87
303.15 K, x2 = 0.916 | 971.62 | 1.5095 | 0.899

Cc1ccccc1 [toluene] + COc1ccccc1
x2 = 0
Conditions | mass density, [1] [kg/m3] | refractive index, [2] | viscosity, [1] [mPa·s]
293.15 K | 866.88 | 1.4962 | 0.588
303.15 K | 857.46 | 1.4914 | 0.523

CCc1ccccc1 [ethylbenzene] + COc1ccccc1
x2 = 0
Conditions | mass density, [1] [kg/m3] | refractive index, [2] | viscosity, [1] [mPa·s]
293.15 K | 866.95 | 1.4957 | 0.669
303.15 K | 858.01 | 1.4902 | 0.596
